Data from BindingDB's records for doi:10.1021/acs.jmedchem.6b00247 (Sanford Burnham Prebys Medical Discovery Institute, 2016).
pIC50: −log10 of the molar value.

Assay: Antagonist activity against HIV-1 Vif in human CEM cells assessed as inhibition of viral infection

COc1ccccc1NC(=O)c1ccccc1Sc1ccc([N+](=O)[O-])cc1
pIC50: 5.35
